{"source": "patent US20070054834A1", "about": "“Quaternary ammonium halides for treatment of infectious conditions” (NanoBio Corporation, priority 2005, published 2007)", "test_system": "S. aureus ATCC 6538", "test": "Microbicidal effect of CPC on S. aureus cultures (log reduction in count)", "format": "cell-based, Staphylococcus aureus", "settings": "incubated 10 minutes at 37° C", "description": "The microbicidal effect of cetyl pyridinium chloride (CPC) was tested using a strain of Staphylococcus aureus. Specifically, S. aureus ATCC 6538 cultures were placed in three different test tubes. Different concentrations (0.1%, 0.01% or 0.001%) of CPC were added to each of the test tubes. The mixture of CPC and S. aureus was incubated for 10 minutes on a tube rotator at 37° C. The results are shown below in Table 1 as the log reduction in S. aureus count.", "data": [{"smiles": "CCCCCCCCCCCCCCCC[n+]1ccccc1", "note": "[CPC, cetyl pyridinium chloride]", "values": [{"measurement": "Log reduction in S. aureus count", "setting": "CPC concentration 0.001%", "result": 3.4}, {"measurement": "Log reduction in S. aureus count", "setting": "CPC concentration 0.01%", "result": 5.3}, {"measurement": "Log reduction in S. aureus count", "setting": "CPC concentration 0.1%", "result": 5.3}]}]}
